Results reported in the NIST ThermoML archive (doi:10.1021/je201102x).

Experiment: xn = mol fraction of the nth substance listed
Settings: 101 kPa, Liquid, Vibrating tube method

CCC(C)(C)O [2-methylbutan-2-ol] + CCC(=O)O
mass density [kg/m3]
Settings	283.15 K	293.15 K	303.15 K	313.15 K	323.15 K	333.15 K
x2 = 0.0822	819.84	815.21	810.53	801.01	791.2	781.09
x2 = 0.16	830.58	825.94	821.26	811.74	801.99	791.96
x2 = 0.2419	842.49	837.85	833.18	823.69	814	804.06
x2 = 0.3189	854.39	849.75	845.08	835.62	825.96	816.07
x2 = 0.4024	868.02	863.37	858.68	849.19	839.53	829.68
x2 = 0.4806	881.53	876.85	872.13	862.6	852.91	843.03
x2 = 0.5588	895.71	890.97	886.21	876.6	866.84	856.93
x2 = 0.6429	911.85	907.05	902.23	892.5	882.64	872.64
x2 = 0.7218	927.93	923.03	918.13	908.25	898.28	888.18
x2 = 0.785	941.5	936.52	931.53	921.51	911.41	901.2
x2 = 0.8812	963.57	958.43	953.3	942.98	932.62	922.2
x2 = 0.9561	982.1	976.8	971.51	960.92	950.3	939.64
